{
  "source": "patent US6432937B1",
  "about": "“Treatment for joint inflammation” (priority 1996, dated 2002)",
  "type_in_all_cases": "in vivo, human",
  "key": {"[1]": {"tested_on": "sacroiliitis and peripheral oligoarthritis", "assay": "Example 1: patient with sacroiliitis and peripheral oligoarthritis treated with oral budesonide", "settings": "person; for Outcome of previous treatment: sacroiliitis and peripheral oligoarthritis for over 7 years, treatment before budesonide", "method": "(§1) The invention is illustrated by the following examples where budesonide is administered orally using the Entocort™ preparation as described in EP-A-502092.\nThey were initially treated with 9 mg of budesonide once a day for the first four weeks and then the dose was reduced to 6 mg per day.\nThe normal value of morning stiffness is 0 min. The joint arthritic index was measured using the Lansbury index whose normal value is 0. The spinal movement was measured using Shober's Test whose normal value is from 5 to 6 cm. The joint pain at rest and in motion was estimated using a VAS (visual analogue scale) where 0 represents no pain and 10 very severe pain."}, "[2]": {"tested_on": "ankylosing spondylitis", "assay": "Example 2: patient with ankylosing spondylitis treated with oral budesonide", "settings": "person; for Outcome of previous treatment: ankylosing spondylitis for 12 years, treatment before budesonide", "method": "as §1\nThe tests were carried out in the same way as in Example 1 except that the laboratory inflammatory activity was measured using the ESR (erythrocyte sedimentation rate) whose normal value is less than 5 mm/h and the C-reactive protein plasma concentration which is usually less than 10 mg/litre."}, "[3]": {"tested_on": "rheumatoid arthritis", "assay": "Example 8: patient with rheumatoid arthritis treated with oral budesonide", "settings": "9 mg once a day", "method": "as §1\nA person had for 2 months suffered from rapidly progressive inflammations of the finger joints of both hands (metacarpophalangeal joints, proximal interphalangeal joints) and the wrists. The diagnosis was rheumatoid arthritis."}, "[4]": {"tested_on": "rheumatoid arthritis", "assay": "Example 7: patient with rheumatoid arthritis treated with oral budesonide", "settings": "person, 9 mg per day, three weeks", "method": "The invention is illustrated by the following examples where budesonide is administered orally using the Entocort™ preparation as described in EP-A-502092. A person had suffered from joint swelling and joint pains for about 5 months. At admittance they had symmetric swelling of finger joints, both knees and left ankle. They were on treatment with diclofenac. The rheumatoid factor test was positive and the diagnosis was rheumatoid arthritis. Diclofenac treatment was stopped and they were given 9 mg of budesonide per day."}, "[5]": {"tested_on": "HLA-B27 associated sacroiliitis with peripheral arthropathies", "assay": "Example 5: patient with HLA-B27 associated sacroiliitis with peripheral arthropathies treated with oral budesonide", "settings": "for Outcome of previous treatment: sacroiliitis with peripheral arthropathies for 8 years, treatment before budesonide", "method": "as §1\nA patient had suffered from a HLA-B27 associated sacroiliitis with peripheral arthropathies for 8 years. […] At admittance to the hospital they suffered from direct pains of the sacroiliac joints and inflammation of the left knee and left ankle."}, "[6]": {"tested_on": "rheumatoid arthritis", "assay": "Example 3: patient with rheumatoid arthritis treated with oral budesonide", "settings": "person, 9 mg once a day, after 4 months", "method": "The invention is illustrated by the following examples where budesonide is administered orally using the Entocort™ preparation as described in EP-A-502092. […] They were diagnosed as having rheumatoid arthritis. They were treated with 9 mg of budesonide once a day. The tests for the symptoms were carried out in the same way as in Examples 1 and 2."}, "[7]": {"tested_on": "HLA-B27 associated reactive arthritis", "assay": "Example 4: patient with HLA-B27 associated reactive arthritis treated with oral budesonide", "settings": "person", "method": "as §1\nwherein the Ritchie index is an alternative joint arthritic index."}, "[8]": {"tested_on": "rheumatoid arthritis", "assay": "Example 6: patient with rheumatoid arthritis treated with oral budesonide", "settings": "person, 9 mg per day, follow-up 4 weeks", "method": "as §1"}, "[9]": {"settings": "9 mg once a day, oral, one month after start, before treatment 8"}, "[10]": {"settings": "person, oral, second follow-up three weeks after the first, before treatment 7"}},
  "data": [
    {"molecule": "CCCC1O[C@@H]2C[C@H]3[C@@H]4CCC5=CC(=O)C=C[C@]5(C)[C@H]4[C@@H](O)C[C@]3(C)[C@]2(C(=O)CO)O1", "note": "(stereo partly shown) [budesonide]", "values": [
      {"measurement": "Spinal movement (Shober's Test)", "setting": "[1]; 9 mg once a day four weeks then 6 mg per day, oral, after 2 months, before treatment 1, normal 5 to 6", "value": 4, "unit": "cm"},
      {"measurement": "Joint pains at rest (VAS 0-10)", "setting": "[1]; 9 mg once a day four weeks then 6 mg per day, oral, after 2 months, before treatment 5", "value": "1.5/1.5"},
      {"measurement": "Joint pains in motion (VAS 0-10)", "setting": "[1]; 9 mg once a day four weeks then 6 mg per day, oral, after 2 months, before treatment 9.5", "value": "1.5/1.5"},
      {"measurement": "Morning stiffness", "setting": "[1]; 9 mg once a day four weeks then 6 mg per day, oral, after 2 months, before treatment 120, normal 0", "value": 20, "unit": "min"},
      {"measurement": "Joint arthritic index (Lansbury index)", "setting": "[1]; 9 mg once a day four weeks then 6 mg per day, oral, after 2 months, before treatment 127, normal 0", "value": 0},
      {"measurement": "Spinal movement (Shober's Test)", "setting": "[2]; 9 mg once a day, oral, one month after start, before treatment 2.5", "value": 3.5, "unit": "cm"},
      {"measurement": "Joint pains at rest (VAS 0-10)", "setting": "[2]; [9]", "value": 1},
      {"measurement": "Joint pains in motion (VAS 0-10)", "setting": "[2]; [9]", "value": 1.7},
      {"measurement": "ESR rate (erythrocyte sedimentation rate)", "setting": "[2]; 9 mg once a day, oral, one month after start, before treatment 85, normal less than 5", "value": 30, "unit": "mm/h"},
      {"measurement": "Joint arthritic index (Lansbury index)", "setting": "[2]; 9 mg once a day, oral, one month after start, before treatment 127", "value": 80},
      {"measurement": "C-reactive protein plasma concentration", "setting": "[2]; 9 mg once a day, oral, one month after start, before treatment 140, usually less than 10", "value": 25, "unit": "mg/L"},
      {"measurement": "Morning stiffness", "setting": "[2]; 9 mg once a day, oral, one month after start, before treatment 270", "value": 0, "unit": "min"},
      {"measurement": "Time until they started to feel better", "setting": "[3]", "value": 14, "unit": "days"},
      {"measurement": "Ritchie index", "setting": "[3]; person, oral, first follow-up three weeks after start, before treatment 16", "value": 2},
      {"measurement": "Joint arthritic index", "setting": "[3]; person, oral, first follow-up three weeks after start, before treatment 90", "value": 0},
      {"measurement": "Joint pains at rest (VAS 0-10)", "setting": "[3]; [10]", "value": "1/1"},
      {"measurement": "Joint pains in motion (VAS 0-10)", "setting": "[3]; [10]", "value": "1/1"},
      {"measurement": "Joint pains in motion (VAS 0-10)", "setting": "[4]; before treatment 5", "value": "0/0"},
      {"measurement": "Joint pains at rest (VAS 0-10)", "setting": "[4]; before treatment 10", "value": "0/0"},
      {"measurement": "Ritchie index", "setting": "[4]; before treatment 19", "value": 5},
      {"measurement": "Joint arthritic index", "setting": "[4]; before treatment 112", "value": 15},
      {"measurement": "Morning stiffness", "setting": "[4]; before treatment 210", "value": 15, "unit": "min"},
      {"measurement": "Duration of treatment until they started to improve", "setting": "[5]; 9 mg per day", "value": 2, "unit": "weeks"},
      {"measurement": "Ritchie index", "setting": "[5]; person, 9 mg per day, oral, 6 weeks after start, before treatment 3", "value": 0},
      {"measurement": "Joint pains in motion (VAS 0-10)", "setting": "[5]; person, 9 mg per day, oral, 6 weeks after start, before treatment 8", "value": "0/0"},
      {"measurement": "Joint pains at rest (VAS 0-10)", "setting": "[5]; person, 9 mg per day, oral, 6 weeks after start, before treatment 9.5", "value": "0/0"},
      {"measurement": "Joint arthritic index", "setting": "[5]; person, 9 mg per day, oral, 6 weeks after start, before treatment 127", "value": 0},
      {"measurement": "Morning stiffness", "setting": "[5]; person, 9 mg per day, oral, 6 weeks after start, before treatment 180", "value": 0, "unit": "min"},
      {"measurement": "C-reactive protein", "setting": "[6]; before treatment 41", "value": 10, "unit": "mg/L"},
      {"measurement": "ESR rate", "setting": "[6]; before treatment 70", "value": 16, "unit": "mm/h"},
      {"measurement": "Morning stiffness", "setting": "[6]; before treatment 180", "value": 0, "unit": "min"},
      {"measurement": "Joint arthritic index (Lansbury index)", "setting": "[6]; before treatment 205", "value": 0},
      {"measurement": "Ritchie index", "setting": "[7]; 9 mg once a day, oral, three weeks, before treatment 9", "value": 4},
      {"measurement": "Joint arthritic index", "setting": "[7]; 9 mg once a day, oral, three weeks, before treatment 112", "value": 6},
      {"measurement": "Morning stiffness", "setting": "[7]; 9 mg once a day, oral, three weeks, before treatment 120", "value": 60, "unit": "min"},
      {"measurement": "Ritchie index", "setting": "[8]; before treatment 8", "value": 5},
      {"measurement": "Joint arthritic index", "setting": "[8]; before treatment 64", "value": 0},
      {"measurement": "Morning stiffness", "setting": "[8]; before treatment 120", "value": 60, "unit": "min"}
    ]},
    {"molecule": "CN(Cc1cnc2nc(N)nc(N)c2n1)c1ccc(C(=O)N[C@@H](CCC(=O)O)C(=O)O)cc1", "note": "[methotrexate]", "values": [
      {"measurement": "Outcome of previous treatment", "setting": "[1]", "value": "without success"},
      {"measurement": "Outcome of previous treatment", "setting": "[2]", "value": "without success"},
      {"measurement": "Outcome of previous treatment", "setting": "[5]; person", "value": "without any apparent disease-modifying effect"}
    ]},
    {"molecule": "C[C@]12C=CC(=O)C=C1CC[C@@H]1[C@@H]2[C@@H](O)C[C@@]2(C)[C@H]1CC[C@]2(O)C(=O)CO", "note": "[prednisolone]", "values": [
      {"measurement": "Outcome of previous treatment", "setting": "[1]", "value": "without success"},
      {"measurement": "Outcome of previous treatment", "setting": "[5]; person", "value": "without any apparent disease-modifying effect"},
      {"measurement": "Outcome of previous treatment", "setting": "[7]; reactive arthritis, treatment before budesonide", "value": "some relief of the joint pains"}
    ]},
    {"molecule": "O=C(O)c1cc(/N=N/c2ccc(S(=O)(=O)Nc3ccccn3)cc2)ccc1O", "note": "[sulphasalazine]", "values": [
      {"measurement": "Outcome of previous treatment", "setting": "[2]", "value": "without success"},
      {"measurement": "Outcome of previous treatment", "setting": "[5]; person", "value": "without any apparent disease-modifying effect"}
    ]}
  ]
}
